What was measured:
[1] = target: T1, MERTK (Homo sapiens, UniProt Q12866); assay: TR-FRET kinase activity assay, MERTK; format: biochemical; details: for IC50: TR-FRET activity assay, ATP at Km, 60 minutes, read-out: Mer IC50; for Mer/Flt3 ratio (FLT3 IC50/Mer IC50): ratio calculated as FLT3 IC50/Mer IC50
T1 sequence (Q12866 21-999): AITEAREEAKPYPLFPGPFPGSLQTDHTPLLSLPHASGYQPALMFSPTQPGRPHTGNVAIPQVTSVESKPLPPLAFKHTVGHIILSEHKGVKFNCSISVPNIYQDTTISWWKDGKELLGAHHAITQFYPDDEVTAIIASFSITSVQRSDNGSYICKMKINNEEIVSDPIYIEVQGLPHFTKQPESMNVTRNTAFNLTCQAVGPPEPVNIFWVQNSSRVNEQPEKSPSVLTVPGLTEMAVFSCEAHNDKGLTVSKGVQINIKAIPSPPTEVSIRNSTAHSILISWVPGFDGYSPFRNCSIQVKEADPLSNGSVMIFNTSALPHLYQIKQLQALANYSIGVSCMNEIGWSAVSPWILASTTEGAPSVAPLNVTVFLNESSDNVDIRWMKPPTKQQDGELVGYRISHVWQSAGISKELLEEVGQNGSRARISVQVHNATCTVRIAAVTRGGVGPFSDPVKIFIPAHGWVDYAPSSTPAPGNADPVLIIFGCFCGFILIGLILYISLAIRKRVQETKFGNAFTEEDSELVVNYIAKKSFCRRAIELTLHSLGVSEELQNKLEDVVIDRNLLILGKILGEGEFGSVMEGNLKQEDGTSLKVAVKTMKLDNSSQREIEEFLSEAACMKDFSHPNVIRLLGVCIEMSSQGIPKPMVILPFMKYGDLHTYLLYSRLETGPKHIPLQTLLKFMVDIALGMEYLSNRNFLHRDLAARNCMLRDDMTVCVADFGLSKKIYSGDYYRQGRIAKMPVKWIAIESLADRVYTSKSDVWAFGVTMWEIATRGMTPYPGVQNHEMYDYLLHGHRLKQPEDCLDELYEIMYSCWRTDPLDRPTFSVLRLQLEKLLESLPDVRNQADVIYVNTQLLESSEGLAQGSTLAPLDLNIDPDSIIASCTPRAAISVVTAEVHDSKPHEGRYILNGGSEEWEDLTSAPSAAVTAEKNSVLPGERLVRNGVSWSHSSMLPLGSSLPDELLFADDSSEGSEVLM
Method in brief: (§1)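 IC50s come from loss of TR-FRET between a Eu-labeled phospho-site antibody and fluorescent tyrosine-phosphorylated peptide. Kinase reactions, initiated with Km ATP, ran 60 min at RT at pH 7.5 before EDTA quench.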

[2] = target: T2, TYRO3 (Homo sapiens, UniProt Q06418); assay: TR-FRET kinase activity assay, TYRO3; format: biochemical; details: ATP at Km, 60 minutes
T2 sequence (Q06418 41-890): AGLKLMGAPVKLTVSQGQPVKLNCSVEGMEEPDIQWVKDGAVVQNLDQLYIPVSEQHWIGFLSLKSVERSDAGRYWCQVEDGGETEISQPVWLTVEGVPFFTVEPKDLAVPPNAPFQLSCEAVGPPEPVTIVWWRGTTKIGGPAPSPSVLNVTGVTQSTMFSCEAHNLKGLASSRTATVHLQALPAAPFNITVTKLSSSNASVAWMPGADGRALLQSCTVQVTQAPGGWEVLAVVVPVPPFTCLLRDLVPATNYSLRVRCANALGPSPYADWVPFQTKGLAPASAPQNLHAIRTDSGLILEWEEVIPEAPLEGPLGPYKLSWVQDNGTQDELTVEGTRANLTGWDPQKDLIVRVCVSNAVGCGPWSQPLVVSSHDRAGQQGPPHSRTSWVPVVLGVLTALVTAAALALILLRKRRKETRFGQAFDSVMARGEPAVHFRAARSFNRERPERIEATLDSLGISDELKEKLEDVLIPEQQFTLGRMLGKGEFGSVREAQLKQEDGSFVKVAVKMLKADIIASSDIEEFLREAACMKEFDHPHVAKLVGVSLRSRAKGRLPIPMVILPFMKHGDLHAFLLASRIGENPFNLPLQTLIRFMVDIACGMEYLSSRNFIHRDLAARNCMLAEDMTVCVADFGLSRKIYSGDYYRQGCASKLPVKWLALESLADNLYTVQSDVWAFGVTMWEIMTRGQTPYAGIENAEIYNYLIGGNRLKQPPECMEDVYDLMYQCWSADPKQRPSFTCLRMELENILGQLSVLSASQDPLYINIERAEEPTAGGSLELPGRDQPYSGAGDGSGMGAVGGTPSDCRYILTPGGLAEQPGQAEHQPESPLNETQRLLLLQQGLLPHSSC
Method in brief: as §1

IC50 [1] | Mer/Flt3 ratio (FLT3 IC50/Mer IC50) [1] | IC50 [2] | Compound
≤ 100 nM | +++ (a ratio of >100) | ≤ 100 nM | CCCC(C)Nc1ncc2c(=O)n(C3CCNCC3)cc([C@H]3CC[C@H](O)CC3)c2n1 (stereo partly drawn) [Compound 112]
≤ 100 nM | + (a ratio of >2.0 and <10) | ≤ 100 nM | CCCCNc1cc2c(cn1)c(=O)n(C1CCN(C)CC1)cc2[C@H]1CC[C@H](O)CC1 [Compound 116]
≤ 100 nM | +++ (a ratio of >100) | ≤ 100 nM | CCCC(C)Nc1ncc2c(=O)n(C3CCN(C)CC3)cc([C@H]3CC[C@H](O)CC3)c2n1 (stereo partly drawn) [Compound 117]
≤ 100 nM | +++ (a ratio of >100) | ≤ 100 nM | CC(C)CC(C)Nc1ncc2c(=O)n(C3CCNCC3)cc([C@H]3CC[C@H](O)CC3)c2n1 (stereo partly drawn) [Compound 119]
100 to 1000 nM | ++ (a ratio of between 10 and 100) | 100 to 1000 nM | CS(=O)(=O)N1CC[C@H](Nc2ncc3c(OC4CCOCC4)ncc([C@H]4CC[C@H](O)CC4)c3n2)C1 [Compound 278]
100 to 1000 nM | ++ (a ratio of between 10 and 100) | 100 to 1000 nM | COC[C@H](C)Nc1ncc2c(OC3CCOCC3)ncc(-c3ccc(N4CCN(C)CC4)cc3)c2n1 [Compound 279]
≤ 100 nM | ++ (a ratio of between 10 and 100) | ≤ 100 nM | COC[C@H](C)Nc1ncc2c(OC3CCOCC3)ncc(-c3ccc(C4CCN(C)CC4)cc3)c2n1 [Compound 280]
≤ 100 nM | +++ (a ratio of >100) | 100 to 1000 nM | CCOC[C@H](C)Nc1ncc2c(OC3CCOCC3)ncc([C@H]3CC[C@H](O)CC3)c2n1 [Compound 281]
1000 to 10000 nM | ++ (a ratio of between 10 and 100) | 100 to 1000 nM | CN1CC(Nc2ncc3c(OC4CCOCC4)ncc([C@H]4CC[C@H](O)CC4)c3n2)CC1=O (stereo partly drawn) [Compound 282]
≤ 100 nM | +++ (a ratio of >100) | ≤ 100 nM | O=C(O)c1ccc(Nc2ncc3c(OC4CCNCC4)ncc([C@H]4CC[C@H](O)CC4)c3n2)cc1 [Compound 283]
≤ 100 nM | +++ (a ratio of >100) | 100 to 1000 nM | C[C@@H](CCO)Nc1ncc2c(OC3CCOCC3)ncc([C@H]3CC[C@H](O)CC3)c2n1 [Compound 284]
≤ 100 nM | +++ (a ratio of >100) | 100 to 1000 nM | COC[C@H](C)Nc1cc2c(cn1)c(OC1CCOCC1)ncc2[C@H]1CC[C@H](O)CC1 [Compound 285]
≤ 100 nM | + (a ratio of >2.0 and <10) | 100 to 1000 nM | O[C@H]1CC[C@H](c2cnc(OC3CCOCC3)c3cnc(NCCC(F)(F)F)nc32)CC1 [Compound 286]
≤ 100 nM | ++ (a ratio of between 10 and 100) | 100 to 1000 nM | CC[C@H](C)Nc1ncc2c(O[C@H]3CC[C@](C)(O)CC3)ncc([C@H]3CC[C@H](O)CC3)c2n1 [Compound 287]
≤ 100 nM | +++ (a ratio of >100) | ≤ 100 nM | CC(C)Nc1ncc2c(OC3CCOCC3)ncc(-c3cccc(S(=O)(=O)N(C)C)c3)c2n1 [Compound 288]
≤ 100 nM | +++ (a ratio of >100) | 100 to 1000 nM | COC[C@H](C)Nc1ncc2c(OC3CCN(S(C)(=O)=O)CC3)ncc([C@H]3CC[C@H](O)CC3)c2n1 [Compound 289]

IC50 [1] | Mer/Flt3 ratio (FLT3 IC50/Mer IC50) [1] | IC50 [2] | Compound
≤ 100 nM | +++ (a ratio of >100) | ≤ 100 nM | CC[C@H](C)Nc1ncc2c(=O)n([C@H]3CC[C@H](N)CC3)cc([C@H]3CC[C@H](O)CC3)c2n1 [Compound 290]
≤ 100 nM | +++ (a ratio of >100) | ≤ 100 nM | CC1(Nc2ncc3c(OC4CCNCC4)ncc([C@H]4CC[C@H](O)CC4)c3n2)CC1 [Compound 291]
≤ 100 nM | +++ (a ratio of >100) | 100 to 1000 nM | C[C@@H](CC#N)Nc1ncc2c(OC3CCOCC3)ncc([C@H]3CC[C@H](O)CC3)c2n1 [Compound 292]
≤ 100 nM | +++ (a ratio of >100) | ≤ 100 nM | COC[C@H](C)Nc1ncc2c(OC3CCOCC3)ncc([C@H]3CC[C@](C)(O)CC3)c2n1 [Compound 293]
≤ 100 nM | +++ (a ratio of >100) | 100 to 1000 nM | COC[C@H](C)Nc1ncc2c(OC3CCOCC3)ncc([C@H]3CC[C@@](C)(O)CC3)c2n1 [Compound 294]
≤ 100 nM | +++ (a ratio of >100) | ≤ 100 nM | COC[C@H](C)Nc1ncc2c(O[C@H]3C[C@H](O)C3)ncc([C@H]3CC[C@H](O)CC3)c2n1 [Compound 295]
≤ 100 nM | +++ (a ratio of >100) | ≤ 100 nM | COC[C@H](C)Nc1ncc2c(O[C@H]3C[C@@H](O)C3)ncc([C@H]3CC[C@H](O)CC3)c2n1 [Compound 296]
100 to 1000 nM | ++ (a ratio of between 10 and 100) | 100 to 1000 nM | CNC(=O)Nc1ccc(-c2cnc(OC3CCOCC3)c3cnc(N[C@@H](C)COC)nc23)cc1 [Compound 297]
≤ 100 nM | +++ (a ratio of >100) | ≤ 100 nM | CC[C@H](C)Nc1ncc2c(O[C@H]3CC[C@@H](N(C)C)C3)ncc([C@H]3CC[C@H](O)CC3)c2n1 [Compound 298]
≤ 100 nM | ++ (a ratio of between 10 and 100) | ≤ 100 nM | O[C@H]1CC[C@H](c2cnc(OC3CCNCC3)c3cnc(Nc4ccc(Cl)c(Cl)c4)nc32)CC1 [Compound 299]
≤ 100 nM | ++ (a ratio of between 10 and 100) | ≤ 100 nM | CCc1cc(Nc2ncc3c(OC4CCNCC4)ncc([C@H]4CC[C@H](O)CC4)c3n2)ccc1Cl [Compound 300]
≤ 100 nM | +++ (a ratio of >100) | 100 to 1000 nM | COC[C@H](C)Nc1ncc2c(OC3CCOCC3)ncc(-c3ccc(O)cc3)c2n1 [Compound 301]
100 to 1000 nM | ++ (a ratio of between 10 and 100) | 100 to 1000 nM | COC[C@H](C)Nc1ncc2c(O[C@H]3CCNCC3(F)F)ncc([C@H]3CC[C@H](O)CC3)c2n1 [Compound 302]
≤ 100 nM | +++ (a ratio of >100) | ≤ 100 nM | COC[C@H](C)Nc1ncc2c(C)ncc([C@H]3CC[C@H](O)CC3)c2n1 [Compound 303]
≤ 100 nM | +++ (a ratio of >100) | 100 to 1000 nM | C[C@@H](CF)Nc1ncc2c(OC3CCOCC3)ncc([C@H]3CC[C@H](O)CC3)c2n1 [Compound 304]
